Assay results taken from patent US6979686B1, “Substituted pyrazoles as p38 kinase inhibitors” (Pharmacia Corporation, priority 2001, dated 2005).

molecular target: T1, human p38 kinase alpha (Homo sapiens, UniProt Q16539); experiment: p38 kinase in vitro assay, phosphorylation of biotinylated PHAS-I with 32P-ATP; type: biochemical; settings: @ 1.0 uM
T1 construct: GST (N, cleaved yes); made in house; host or cells: E. coli DH10B
Method: The coding region of the human p38a cDNA was obtained by PCR-amplification from RNA isolated from the human monocyte cell line THP.1. […] Random primer, dNTP's and Superscript™ reagents were all purchased from Life-Technologies, Gaithersburg, Mass. The reaction was incubated at 42° C. for 1 hour. Amplification of p38 cDNA was performed by aliquoting 5 μl of the reverse transcriptase reaction into a 100 μl PCR reaction containing the following: 80 μl dH2O, 2 μl 50 mM DNTP's, 1 μl each of forward and reverse primers (50 pmol/μl), 10 μl of 10×buffer and 1 μl Expand™ polymerase (Boehringer Mannheim). The PCR primers incorporated BamHI sites onto the 5′ and 3′ end of the amplified fragment, and were purchased from Genosys. […] The PCR amplification was carried out in a DNA Thermal Cycler (Perkin Elmer) by repeating 30 cycles of 94° C. for 1 minute, 60° C. for 1 minute and 68° C. for 2 minutes. After amplification, excess primers and unincorporated dNTP's were removed from the amplified fragment with a Wizard™ PCR prep (Promega) and digested with BamHI (New England Biolabs). The BamHI digested fragment was ligated into BamHI digested PGEX 2T plasmid DNA (PharmaciaBiotech) using T-4 DNA ligase (New England Biolabs) as described by T. Maniatis, Molecular Cloning: A Laboratory Manual, 2nd ed. […] The ligation reaction was transformed into chemically competent E. coli DH10B cells purchased from Life-Technologies following the manufacturer's instructions. Plasmid DNA was isolated from the resulting bacterial colonies using a Promega Wizard™ miniprep kit.
Expression of Human p38a:
Overnight cultures were grown in-Luria Broth (LB) containing […] ampicillin. The next day, 500 ml of fresh LB was inoculated with 10 ml of overnight culture, and grown in a 2 liter flask at 37° C. with constant shaking until the culture reached an absorbance of 0.8 at 600 nm. Expression of the fusion protein was induced by addition of isopropyl b-D-thiogalactosidse (IPTG) to a final concentration of 0.05 mM. The cultures were shaken for three hours at room temperature, and the cells were harvested by centrifugation. The cell pellets were stored frozen until protein purification.
Purification of p38 Kinase-α:
All chemicals were from Sigma Chemical Co. unless noted. Twenty grams of E. coli cell pellet collected from five 1 L shake flask fermentations was resuspended in a volume of PBS (140 mM NaCl, 2.7 mM KCl, 10 mM Na2HPO4, 1.8 mM KH2PO4, pH 7.3) up to 200 ml. The cell suspension was adjusted to 5 mM DTT with 2 M DTT and then split equally into five 50 ml Falcon conical tubes. The cells were sonnicated (Ultrasonics model W375) with a 1 cm probe for 3×1 minutes (pulsed) on ice. Lysed cell material was removed by centrifugation (12,000×g, 15 minutes) and the clarified supernatant applied to glutathione-sepharose resin (Pharmacia).
Glutathione-sepharose Affinity Chromatography:
The resin was collected by centrifugation (600×g, 5 min) and washed with 2×150 ml PBS/1% Triton X-100, followed by 4×40 ml PBS. To cleave the p38 kinase from the GST-p38 fusion protein, the glutathione-sepharose resin was resuspended in 6 ml PBS containing 250 units thrombin protease (Pharmacia, specific activity>7500 units/mg) and mixed gently for 4 hours at room temperature. The glutathione-sepharose resin was removed by centrifugation (600×g, 5 min) and washed 2×6 ml with PBS. The PBS wash fractions and digest supernatant containing p38 kinase protein were pooled and adjusted to 0.3 mM PMSF.
Mono O Anion Exchange Chromatography:
The thrombin-cleaved p38 kinase was further purified by FPLC-anion exchange chromatography.

T1 sequence (Q16539 whole entry): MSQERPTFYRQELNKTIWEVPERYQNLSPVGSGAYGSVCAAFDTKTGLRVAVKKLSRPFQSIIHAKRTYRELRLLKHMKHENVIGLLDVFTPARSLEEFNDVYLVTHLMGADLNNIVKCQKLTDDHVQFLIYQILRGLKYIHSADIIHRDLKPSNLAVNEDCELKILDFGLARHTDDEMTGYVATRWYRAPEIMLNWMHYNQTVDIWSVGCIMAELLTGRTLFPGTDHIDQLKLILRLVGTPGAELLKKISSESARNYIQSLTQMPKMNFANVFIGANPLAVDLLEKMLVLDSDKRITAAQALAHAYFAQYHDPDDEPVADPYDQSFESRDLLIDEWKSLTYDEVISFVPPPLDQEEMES

Going from `CC(C)C(=O)NCCCc1[nH]nc(-c2ccc(F)cc2)c1-c1ccncc1` [Example B-1160] to `CC(C)NC(=O)NCCc1[nH]nc(-c2ccc(F)cc2)c1-c1ccncc1` [Example B-0937], the “P38 alpha kinase % inhib @ conc. (uM)” value falls from 79.0% @ to 64.0% @.

First: COc1cccc(NC(=O)NCCc2[nH]nc(-c3ccc(F)cc3)c2-c2ccncc2)c1 [Example B-0948]
Second: COc1cccc(CC(=O)NCCCc2[nH]nc(-c3ccc(F)cc3)c2-c2ccncc2)c1 [Example B-1178]
The “P38 alpha kinase % inhib @ conc. (uM)” value of the first is lower: 68.0% @ for the first, 92.0% @ for the second.

Compared with `CC(Oc1ccccc1)C(=O)NCCCc1[nH]nc(-c2ccc(F)cc2)c1-c1ccncc1` (stereo not shown) [Example B-1186], `O=C(NCCCc1[nH]nc(-c2ccc(F)cc2)c1-c1ccncc1)c1ccccc1` [Example B-1180] is lower in “P38 alpha kinase % inhib @ conc. (uM)” value: 83.0% @ for the first, 78.0% @ for the second.

Compared with `O=C(NCCCc1[nH]nc(-c2ccc(F)cc2)c1-c1ccncc1)c1ccccc1C(F)(F)F` [Example B-1173], `COc1ccc(CC(=O)NCCc2[nH]nc(-c3ccc(F)cc3)c2-c2ccncc2)cc1` [Example B-1000] is lower in “P38 alpha kinase % inhib @ conc. (uM)” value: 65.0% @ for the first, 55.0% @ for the second.

Going from `COc1ccc(NC(=O)NCCCc2[nH]nc(-c3ccc(F)cc3)c2-c2ccncc2)cc1` [Example B-1224] to `CNC(=O)NCCCc1[nH]nc(-c2ccc(F)cc2)c1-c1ccncc1` [Example B-1213], the “P38 alpha kinase % inhib @ conc.” value rises from 82.0% @ to 84.0% @.

same assay, conditions: @ 1.0 uM; read-out: P38 alpha kinase % inhib @ conc.

With `CCC(Oc1ccccc1)C(=O)NCc1[nH]nc(-c2ccc(F)cc2)c1-c1ccncc1` (stereo not shown) [Example B-0047] the inhibition at 1 µM was 94%.

same assay, conditions: @ 10.0 uM

First: Cc1c(-c2ccncc2)c(-c2ccc(F)cc2)nn1CC(=O)N(C)CCc1ccccc1 [Example B-2376]
Second: Cc1c(-c2ccncc2)c(-c2ccc(F)cc2)nn1CC(=O)NC1CC1 [Example B-2341]
The “P38 alpha kinase % inhib @ conc.” value of the first is lower: 32.0% @ for the first, 75.0% @ for the second.

For `Cc1c(-c2ccncc2)c(-c2ccc(F)cc2)nn1CC(=O)NC1CCCCC1` [Example B-2347], the “P38 alpha kinase % inhib @ conc.” value was 49.0% @.

same assay, conditions: Table 8; 1% DMSO; read-out: p38α Kinase Assay IC50

Work on `O=C(c1n[nH]c(-c2ccc(F)cc2)c1-c1ccncc1)N1CCNCC1` [A-314, Step 1, 1-[[5-(4-fluorophenyl)-4-(4-pyridinyl)-1H-pyrazol-3-yl]carbonyl]piperazine, monhydrate] yielded an IC50 of 0.85 µM.

same assay, conditions: activated human p38 kinase alpha, PHAS-I substrate, 50 μM unlabeled ATP; read-out: p38 kinase IC50

`Cc1cc(C)cc(-c2n[nH]c(C)c2-c2ccncc2)c1` [Example A-34] showed an IC50 of 8 µM.

same assay, conditions: in vitro P38-alpha kinase inhibition; read-out: P38 alpha kinase IC50

First: Cc1c(C)c(S(=O)(=O)NCCc2[nH]nc(-c3ccc(F)cc3)c2-c2ccncc2)c(C)c2c1OC(C)(C)CC2 [Example B-1110]
Second: Cc1noc(C)c1S(=O)(=O)NCCc1[nH]nc(-c2ccc(F)cc2)c1-c1ccncc1 [Example B-1104]
The IC50 of the first is 3.9-fold higher: 0.47 µM for the first, 0.12 µM for the second. The second is the more potent here.

`O=C(NC(Cc1ccccc1)c1[nH]nc(-c2ccc(F)cc2)c1-c1ccncc1)C1CCCC1` (stereo not shown) [Example B-0852] and `CCCOC(=O)NC(Cc1ccccc1)c1[nH]nc(-c2ccc(F)cc2)c1-c1ccncc1` (stereo not shown) [Example B-0792] are within 1.5-fold of each other in IC50: 1.02 µM for the first, 1.1 µM for the second.

Compared with `Cc1ccc(S(C)(=O)=O)cc1S(=O)(=O)NCCc1[nH]nc(-c2ccc(F)cc2)c1-c1ccncc1` [Example B-1119], `Cc1ccccc1S(=O)(=O)NCCc1[nH]nc(-c2ccc(F)cc2)c1-c1ccncc1` [Example B-1097] is lower in IC50: 0.35 µM for the first, < 0.1 µM for the second.

Going from `Cc1ccccc1S(=O)(=O)NC(C)c1[nH]nc(-c2ccc(F)cc2)c1-c1ccncc1` (stereo not shown) [Example B-0646] to `C[C@@H](NS(=O)(=O)c1ccc(Br)cc1)c1[nH]nc(-c2ccc(F)cc2)c1-c1ccncc1` [Example B-0432], the IC50 falls from 0.26 µM to < 0.1 µM.

Compared with `O=C(NC(Cc1ccccc1)c1[nH]nc(-c2ccc(F)cc2)c1-c1ccncc1)c1ccccc1I` (stereo not shown) [Example B-0798], `COc1cccc(C(=O)NC(Cc2ccccc2)c2[nH]nc(-c3ccc(F)cc3)c2-c2ccncc2)c1` (stereo not shown) [Example B-0824] is 2-fold higher in IC50: 1.73 µM for the first, 3.41 µM for the second.

Going from `CC(NS(=O)(=O)c1ccc2ccccc2c1)c1[nH]nc(-c2ccc(F)cc2)c1-c1ccncc1` (stereo not shown) [Example B-0652] to `CCCCOc1ccc(S(=O)(=O)NC(C)c2[nH]nc(-c3ccc(F)cc3)c2-c2ccncc2)cc1` (stereo not shown) [Example B-0456], the IC50 rises from 0.19 µM to 1.31 µM (6.9-fold). The first is the more potent here.

Compared with `CC(=O)OCC(=O)NC(C)c1[nH]nc(-c2ccc(F)cc2)c1-c1ccncc1` (stereo not shown) [Example B-0530], `CC(C)NC(=O)NC(C)c1[nH]nc(-c2ccc(F)cc2)c1-c1ccncc1` (stereo not shown) [Example B-0578] is 2.9-fold lower in IC50: 5.53 µM for the first, 1.88 µM for the second. The second is the more potent here.

First: CC(C)S(=O)(=O)NC(Cc1ccccc1)c1[nH]nc(-c2ccc(F)cc2)c1-c1ccncc1 (stereo not shown) [Example B-0754]
Second: O=S(=O)(NC(Cc1ccccc1)c1[nH]nc(-c2ccc(F)cc2)c1-c1ccncc1)c1ccccc1F (stereo not shown) [Example B-0714]
The IC50 of the first is 6.7-fold lower: 0.55 µM for the first, 3.7 µM for the second.

First: CC(NC(=O)c1c(F)cccc1F)c1[nH]nc(-c2ccc(F)cc2)c1-c1ccncc1 (stereo not shown) [Example B-0700]
Second: COc1ccc(NC(=O)NC(Cc2ccccc2)c2[nH]nc(-c3ccc(F)cc3)c2-c2ccncc2)cc1 (stereo not shown) [Example B-0741]
The IC50 of the first is 110-fold lower: 0.24 µM for the first, 26 µM for the second.

With `O=S(=O)(NC(Cc1ccccc1)c1[nH]nc(-c2ccc(F)cc2)c1-c1ccncc1)c1ccc(F)cc1` (stereo not shown) [Example B-0752] the IC50 was 0.33 µM.

same assay, conditions: in vitro P38-alpha kinase; read-out: P38 alpha kinase IC50

First: O=C(c1cc(Cl)cc(Cl)c1)N1CCC(c2[nH]nc(-c3ccc(F)cc3)c2-c2ccncc2)CC1 [Example B-1419]
Second: O=C(c1c(Cl)cccc1Cl)N1CCC(c2[nH]nc(-c3ccc(F)cc3)c2-c2ccncc2)CC1 [Example B-1413]
The IC50 of the first is 19-fold higher: 0.3 µM for the first, 0.016 µM for the second. The second is the more potent here.

Going from `O=S(=O)(NCCCc1[nH]nc(-c2ccc(F)cc2)c1-c1ccncc1)c1ccc(Cl)cc1` [Example B-1238] to `CN(C)c1cccc2c(S(=O)(=O)NCCCc3[nH]nc(-c4ccc(F)cc4)c3-c3ccncc3)cccc12` [Example B-1249], the IC50 rises from 0.14 µM to 0.24 µM (1.7-fold).

First: Cc1c(-c2ccncc2)c(-c2ccc(F)cc2)nn1CC(=O)NCc1ccccc1Cl [Example B-2274]
Second: Cc1c(-c2ccncc2)c(-c2ccc(F)cc2)nn1CC(=O)NCc1ccc(N(C)C)cc1 [Example B-2275]
The IC50 of the first is 8.3-fold lower: 0.26 µM for the first, 2.16 µM for the second. The first is the more potent here.

First: CCSCCNC(=O)Cn1nc(-c2ccc(F)cc2)c(-c2ccncc2)c1C [Example B-2312]
Second: COCCNC(=O)Cn1nc(-c2ccc(F)cc2)c(-c2ccncc2)c1C [Example B-2292]
The IC50 of the first is 3-fold lower: 2.93 µM for the first, 8.82 µM for the second. The first is the more potent here.

First: COc1ccc(C(=O)N2CCC(c3[nH]nc(-c4ccc(F)cc4)c3-c3ccncc3)CC2)cc1 [Example B-1391]
Second: Cc1cccc(C(=O)N2CCC(c3[nH]nc(-c4ccc(F)cc4)c3-c3ccncc3)CC2)c1 [Example B-1395]
The IC50 of the first is 92-fold lower: 0.016 µM for the first, 1.48 µM for the second.

First: O=C(NCCCc1[nH]nc(-c2ccc(F)cc2)c1-c1ccncc1)c1ccccc1Cl [Example B-1343]
Second: O=C(NCCCc1[nH]nc(-c2ccc(F)cc2)c1-c1ccncc1)c1cc(F)c(F)cc1F [Example B-1350]
The IC50 of the first is 3.4-fold higher: 0.065 µM for the first, 0.019 µM for the second.

Compared with `COc1cc(CNC(=O)Cn2nc(-c3ccc(F)cc3)c(-c3ccncc3)c2C)cc(OC)c1OC` [Example B-2297], `Cc1c(-c2ccncc2)c(-c2ccc(F)cc2)nn1CC(=O)NCCCCN1CCCC1` [Example B-2288] is 1.8-fold higher in IC50: 3.59 µM for the first, 6.51 µM for the second.

First: O=C(OCc1ccccc1)N1CCC(c2[nH]nc(-c3ccc(F)cc3)c2-c2ccncc2)CC1 [Example B-1428]
Second: O=S(=O)(c1ccc(F)cc1F)N1CCC(c2[nH]nc(-c3ccc(F)cc3)c2-c2ccncc2)CC1 [Example B-1454]
The IC50 of the first is lower: < 0.1 µM for the first, 1.6 µM for the second.

`O=S(=O)(NCCCc1[nH]nc(-c2ccc(F)cc2)c1-c1ccncc1)c1cc(S(=O)(=O)c2ccccc2)cs1` [Example B-1289] showed an IC50 of 0.73 µM.
